From paper PMC9093646, “Physicochemical and Biochemical Evaluation of Amorphous Solid Dispersion of Naringenin Prepared Using Hot-Melt Extrusion” (Frontiers in Nutrition, 2022)
≈ marks a conversion by molar mass, not a printed value.

What was measured:
[1] = Pharmacokinetics after intravenous administration of serum containing unchanged NRG and NRG metabolites; type: in vivo, rat; conditions: rats
Method: The same amount of NRG SD was intragastrically administered 5 min later. Blood was collected from the heart under isoflurane anesthesia 35 min after the first administration and stored at 4°C for several hours. Serum was then isolated by centrifugation and analyzed by liquid chromatography-tandem mass spectrometry (LC-MS/MS). […] Serum containing the unchanged NRG and NRG metabolites was administered via the tail vein at a dose of 500 μL/rat. […] The plasma was isolated by centrifugation. […] The mixture was centrifuged at 4°C, and 25 μL supernatant was collected and mixed with 75 μL of 30% (v/v) acetonitrile. […] The samples were incubated at 37°C overnight and extracted using the same method that was employed for those containing the unchanged NRG. LC-MS/MS analysis was performed using an ACQUITY UPLC system (Waters Corp., Milford, MA, United States) fitted with a cooling autosampler and a column oven with temperature control. Mass spectrometry was performed using a Waters Xevo TQ-S tandem quadrupole mass spectrometer (QQ-MS; Waters Corp.). Chromatographic separation was performed on an ACQUITY UPLC BEH C18 1.7 μm column (50 mm × 2.1 mm; Waters Corp.). […] The flow rate was set at 0.5 mL/min. The sample injection volume was 5 μL. […]. Positive electrospray ionization was used to generate the parental ions. Multiple reaction monitoring, using precursor → product ion transitions of m/z 273.04 → 152.97 and m/z 255.10 → 198.99, was used to quantify NRG and daidzein (internal standard), respectively.

[2] = Dissolution test, Japanese Pharmacopoeia paddle method; type: physicochemical; conditions: test solution 1 (pH 1.2), after 120 min
Method: The dissolution test was conducted using the paddle method described in the Japanese Pharmacopoeia ([26]). First, 900 mL dissolution test solution 1 or 2 was placed in the dissolution tester vessel and then 30 mg of crystalline NRG, 300 mg of PM, and 300 mg of SD were added to it. The temperature (37°C) and stirring rate (100 rpm) were maintained during the experiment. Samples were collected 2, 5, 10, 20, 30, 45, 60, 90, and 120 min after sample addition. The solutions were passed through 0.2-μm filters, and the filtrates were subjected to HPLC analysis.

[3] = tested on: acetic acid-induced writhing in rats; test: Acetic acid-induced writhing test; type: in vivo, rat; conditions: oral 5 min before i.p. acetic acid, counted over 25 min, crystalline NRG 100 mg/kg, NRG SD 30 or 100 mg/kg
Method: The acetic acid-induced writhing test was performed according to the method of Pinho-Ribeiro et al. ([8]) with modifications. Rats aged 5–7 weeks were fasted for 16 h and divided into four groups of eight animals per group. The first group was intragastrically administered 10 mL/kg saline as a control. The second group was intragastrically administered crystalline NRG at 100 mg/kg BW. The third and fourth groups were intragastrically administered NRG SD equivalent to 30 mg/kg and 100 mg/kg BW NRG, respectively. After 5 min, each rat was intraperitoneally injected with 10 mL/kg of 0.8% (v/v) acetic acid in saline solution. Visceral pain intensity was quantified by enumerating the abdominal writhing within 0–25 min after the stimulus. The writhing response was characterized by the contraction of abdominal muscles and stretching of the hind limbs.

[4] = set-up: method as in PMID 17047689; conditions: humans; cited from earlier work
[5] = Pharmacokinetics after oral administration; type: in vivo, rat; conditions: rats, equivalent to 100 mg/kg NRG
Method: Each solution was suspended in ion-exchange water immediately prior to administration. […] The blood was stored in heparinized hematocrit tubes, and the plasma was isolated by centrifugation. […] The samples were incubated at 37°C overnight and extracted using the same method that was employed for those containing the unchanged NRG. LC-MS/MS analysis was performed using an ACQUITY UPLC system (Waters Corp., Milford, MA, United States) fitted with a cooling autosampler and a column oven with temperature control. Mass spectrometry was performed using a Waters Xevo TQ-S tandem quadrupole mass spectrometer (QQ-MS; Waters Corp.). Chromatographic separation was performed on an ACQUITY UPLC BEH C18 1.7 μm column (50 mm × 2.1 mm; Waters Corp.). […] Positive electrospray ionization was used to generate the parental ions. Multiple reaction monitoring, using precursor → product ion transitions of m/z 273.04 → 152.97 and m/z 255.10 → 198.99, was used to quantify NRG and daidzein (internal standard), respectively.

Solubility test (HPLC) = type: physicochemical; conditions: aqueous buffer, thermodynamic from solid, dissolution test solution 2 (pH 6.8), 37°C, read-out: water solubility
Method: The prepared NRG SD (500 mg; equivalent to 50 mg NRG) was added to 2.5 mL dissolution test solution 2. The mixture was shaken vigorously at 37°C for 30 min and centrifuged ([15], [17]). The supernatant was then passed through a 0.2-μm filter and subjected to high-performance liquid chromatography (HPLC) analysis. The NRG concentration was determined using an HPLC system fitted with the LC-20AD pump and the SPD-M20 detector (Shimadzu Corp., Kyoto, Japan) ([15]). A reverse-phase column (CAPCELL PAK C18 MGII; 4.6 mm × 100 mm; 5 μm; Shiseido Co., Ltd., Tokyo, Japan) was operated at 40°C. The mobile phase consisted of a methanol-water (45:55, v/v) mixture with 0.05% (v/v) phosphoric acid, and it was ultrasonically degassed before use. The flow rate was set at 1 mL/min, and the detection wavelength was set at 289 nm. The sample injection volume was 10 μL. The HPLC was calibrated using standard methanol-water (50:50, v/v) NRG solutions in the concentration range of 0.125–40 μg/mL.

- clearance ([1]; plasma, iv, i.v., serum 500 μL/rat, two-compartment model, read-out: CL, total body clearance (converted)): 2.67 mL/min
- Vd ([1]; plasma, iv, i.v., serum 500 μL/rat, two-compartment model, read-out: Vd, volume of distribution): 0.19 ± 0.08 L/kg
- k el ([1]; plasma, iv, i.v., serum 500 μL/rat, two-compartment model, read-out: ke, elimination rate constant (converted)): 0.00509 s⁻¹
- half-life ([1]; plasma, iv, i.v., serum 500 μL/rat, two-compartment model, read-out: t1/2, elimination half-life time (converted)): 0.99 ± 0.33 h
- AUC(0-t) ([1]; plasma, iv, serum 500 μL/rat, two-compartment model): 120 ± 20 ng·h/mL
- AUC(0-inf) ([1]; plasma, iv, serum with 34.8 μg/mL unchanged NRG and 134.5 μg/mL NRG metabolites, 500 μL/rat, two-compartment model): 130 ± 20 ng·h/mL
- dissolved NRG [2]: 40%
- AUC(0-t) ([5]; rat, plasma, po, 100 mg/kg, unchanged NRG in plasma, read-out: AUC0–1 h): 30 ± 10 ng·h/mL
- AUC(0-t) ([5]; rat, plasma, po, 100 mg/kg, unchanged NRG in plasma, read-out: AUC0–t): 740 ± 240 ng·h/mL
- bioavailability ([5]; rat, plasma, po, 100 mg/kg, unchanged NRG, read-out: F, absolute bioavailability): ~0.5%
- AUC(0-inf) ([5]; rat, unchanged NRG in plasma): 740 ± 240 ng·h/mL
- Cmax ([5]; rat, unchanged NRG in plasma): 130 ± 10 ng/mL
- Tmax ([5]; rat, unchanged NRG in plasma): 4 ± 1.26 h
- F, absolute bioavailability ([5]; unchanged NRG): 0.52 ± 0.17%
- solubility at 30 min (Solubility test (HPLC)): 70 µg/mL (≈ 257 µM)
Compound: O=C1C[C@@H](c2ccc(O)cc2)Oc2cc(O)cc(O)c21 [NRG, Naringenin]
- distribution volume as share of the body weight ([1]; i.v.): ~20%
- number of writhings compared to the control [3]: significantly decreased
- cumulative urinary excretion rate relative to the oral NRG dose [4]: ~5.8%
